The values that follow come from patent publication US20250066322A1, “SUBSTITUTED HETEROCYCLIC COMPOUNDS” (BRISTOL-MYERS SQUIBB COMPANY, priority 2021, published 2025).

A word on the IC50: it is the concentration at which inhibition is half-maximal.

One assay relates to IFNα-Induced STAT Phosphorylation (pSTAT5). Nature of the assay: IFNα-Induced STAT Phosphorylation in Human Whole Blood. Type of assay: cell-based. The following applies: 1 h incubation with compound, then 1000 U/mL recombinant human IFNα A/D for 15 min, pSTAT5 in CD3 positive population, read-out: Human Whole blood IFNa pSTAT5 IC50. The protocol:
IFNα-Induced STAT Phosphorylation in Human Whole Blood
After an hour long incubation with compound, human whole blood (drawn with ACD-A as anticoagulant) was stimulated with 1000 U/mL recombinant human IFNα A/D (R&D Systems 11200-2) for 15 min. The stimulation was stopped by adding Fix/Lyse buffer (BD 558049). Cells were stained with a CD3 FITC antibody (BD 555916), washed, and permeabilized on ice using Perm III buffer (BD 558050). Cells were then stained with an Alexa-Fluor 647 pSTAT5 (pY694) antibody (BD 612599) for 60 min prior to analysis on the iQue Plus. The amount of pSTAT5 expression was quantitated by median fluorescence intensity after gating on the CD3 positive population.
As to `[2H]C([2H])([2H])NC(=O)c1nnc(NC(=O)C2CC2C)cc1Nc1ncccc1S(=O)(=O)C(F)F` (single isomer, unassigned) [Example 13a, 4-((3-((difluoromethyl)sulfonyl)pyridin-2-yl)amino)-N-(methyl-d3)-6-(2-methylcyclopropane-1-carboxamido)pyridazine-3-carboxamide], the IC50 came to 110 nM.

For the molecule `[2H]C([2H])([2H])NC(=O)c1nnc(NC(=O)C2CC2C)cc1Nc1ncccc1S(=O)(=O)C(F)F` (single isomer, unassigned) [Example 13b, 4-((3-((difluoromethyl)sulfonyl)pyridin-2-yl)amino)-N-(methyl-d3)-6-(2-methylcyclopropane-1-carboxamido)pyridazine-3-carboxamide], the IC50 amounted to 10 nM.

With `CCC(=O)c1cnc(NC(=O)C2CC2C)cc1Nc1ncccc1S(=O)(=O)C(F)F` (single isomer, unassigned) [Example 21a, N-(4-((3-((difluoromethyl)sulfonyl)pyridin-2-yl)amino)-5-propionylpyridin-2-yl)-2-methylcyclopropane-1-carboxamide], the IC50 is 1400 nM.

Turning to `CCC(=O)c1cnc(NC(=O)C2CC2C)cc1Nc1ncccc1S(=O)(=O)C(F)F` (single isomer, unassigned) [Example 21b, N-(4-((3-((difluoromethyl)sulfonyl)pyridin-2-yl)amino)-5-propionylpyridin-2-yl)-2-methylcyclopropane-1-carboxamide], the IC50 was 50 nM.

Turning to `CCC(=O)c1cnc(NC(=O)[C@@H]2CC23CC3)cc1Nc1ncccc1S(=O)(=O)C(F)F` [Example 17], the IC50 stood at 960 nM.

The same assay, now with this note: Homo sapiens, 1 h incubation with compound, then 1000 U/mL recombinant human IFNα A/D for 15 min, pSTAT5 in CD3 positive population, read-out: Human Whole blood IFNa pSTAT5 IC50.
Take `[2H]C([2H])([2H])NC(=O)c1nnc(NC(=O)C2CC2)cc1Nc1ncccc1S(=O)(=O)C1CC1` [Example 1, 6-(cyclopropanecarboxamido)-4-((3-(cyclopropylsulfonyl)pyridin-2-yl)amino)-N-(methyl-d3) pyridazine-3-carboxamide]: the IC50 is 70 nM.

On to `[2H]C([2H])([2H])NC(=O)c1nnc(NC(=O)OC)cc1Nc1ncccc1S(=O)(=O)C1CC1` [Example 2, methyl (5-((3-(cyclopropylsulfonyl)pyridin-2-yl)amino)-6-((methyl-d3)carbamoyl)pyridazin-3-yl)carbamate], for which the concentration for half-maximal inhibition (IC50) was determined as 670 nM.

Consider `CCC(=O)c1cnc(NC(=O)C2CC2)cc1Nc1ncccc1S(=O)(=O)C1CC1` [Example 3, N-(4-((3-(cyclopropylsulfonyl)pyridin-2-yl)amino)-5-propionylpyridin-2-yl)cyclopropanecarboxamide], for which the IC50 is 590 nM.

For `[2H]C([2H])([2H])NC(=O)c1nnc(NC(=O)C2CC2)cc1Nc1ncccc1S(=O)(=O)C(F)F` [Example 4, 6-(cyclopropanecarboxamido)-4-((3-((difluoromethyl)sulfonyl)-pyridin-2-yl)amino)-N-(methyl-d3)pyridazine-3-carboxamide], the IC50 came out at 30 nM.

As to `[2H]C([2H])([2H])NC(=O)c1nnc(NC(=O)OC)cc1Nc1ncccc1S(=O)(=O)C(F)F` [Example 5, methyl (5-((3-((difluoromethyl)-sulfonyl)pyridin-2-yl)amino)-6-((methyl-d3)carbamoyl)-pyridazin-3-yl)carbamate], the IC50 stood at 250 nM.

As for `[2H]C([2H])([2H])NC(=O)c1nnc(NC(=O)N(C)C)cc1Nc1ncccc1S(=O)(=O)C(F)F` [Example 6, 4-((3-((difluoromethyl)sulfonyl)pyridin-2-yl)amino)-6-(3,3-dimethylureido)-N-(methyl-d3)pyridazine-3-carboxamide], the IC50 was 210 nM.

Turning to `CCC(=O)c1cnc(NC(=O)C2CC2)cc1Nc1ncccc1S(=O)(=O)C(F)F` [Example 15, N-(4-((3-((difluoromethyl)sulfonyl)pyridin-2-yl)amino)-5-propionylpyridin-2-yl)cyclopropanecarboxamide], the IC50 worked out at 150 nM.

Turning to `CCC(=O)c1cnc(NC(=O)N(C)C)cc1Nc1ncccc1S(=O)(=O)C(F)F` [Example 16, 3-(4-((3-((difluoromethyl)sulfonyl)pyridin-2-yl)amino)-5-propionylpyridin-2-yl)-1,1-dimethylurea], the IC50 was found to be 980 nM.

On to `CCC(=O)c1cnc(NC(=O)[C@H]2C[C@@H]2C)cc1Nc1ncccc1S(=O)(=O)C(F)F` [Example 18, (1S,2S)-N-(4-((3-((difluoromethyl)sulfonyl)pyridin-2-yl)amino)-5-propionylpyridin-2-yl)-2-methylcyclopropane-1-carboxamide], for which the concentration for half-maximal inhibition (IC50) turned out to be 850 nM.

In the case of `CCC(=O)c1cnc(NC(=O)[C@H]2C[C@@H]2F)cc1Nc1ncccc1S(=O)(=O)C(F)F` [Example 20, (1R,2S)-N-(4-((3-((difluoromethyl)sulfonyl)pyridin-2-yl)amino)-5-propionylpyridin-2-yl)-2-fluorocyclopropane-1-carboxamide], the IC50 was found to be 460 nM.

Turning to `CCC(=O)c1cnc(Nc2cccc(F)n2)cc1Nc1ncccc1S(=O)(=O)C(F)F` [Example 22, 1-(4-((3-((difluoromethyl)sulfonyl)pyridin-2-yl)amino)-6-((6-fluoropyridin-2-yl)amino)pyridin-3-yl)propan-1-one], the IC50 came out at 220 nM.
